# Measured values reported in ChEMBL document CHEMBL5244218, “Quinolone derivatives and their activities against methicillin-resistant Staphylococcus aureus (MRSA)” (Eur J Med Chem, 2018).
# System: Staphylococcus aureus
# Test: Antimicrobial activity against methicillin-resistant Staphylococcus aureus
# Format: functional, organism-based
SMILES,IC50 [µM],MIC [µg/mL]
COc1cc(=O)n(C)c2ccccc12,8,–
COc1c2c(cc(F)c1N1C[C@H]3CCCN(C[C@@H](O)Cn4cc([N+](=O)[O-])nc4C)[C@H]3C1)C(=O)C(C(=O)O)=CC2C1CC1 (stereo partly drawn),–,2
CCO/N=C1\CCN(c2c(F)cc3c(=O)c(C(=O)O)cn(C4CC4)c3c2F)CC1(C)CN (stereo not drawn),–,8
CCO/N=C1\CCN(c2nc3c(cc2F)c(=O)c(C(=O)O)cn3C2CC2)CC1(C)CN (stereo not drawn),–,8
COc1c(N2CCNC(C)C2)c(F)cc2c(=O)c(C(=O)O)cn(C3CC3)c12 (stereo not drawn) [GATIFLOXACIN],–,16

# System: Staphylococcus aureus
# Test: Antimicrobial activity against methicillin-resistant Staphylococcus aureus incubated for 18 hrs by Alamar blue staining based analysis
# Format: functional
row,SMILES,MIC [µg/mL]
1,COc1c(N2CC/C(=N/Oc3ccc(F)cc3)C(N)C2)c(F)cc2c(=O)c(C(=O)O)cn(C3CC3)c12 (stereo not drawn),0.008
2,COc1cc(Br)ccc1O/N=C1/CCN(c2c(F)cc3c(=O)c(C(=O)O)cn(C4CC4)c3c2OC)CC1N (stereo not drawn),0.008
3,COc1c(N2CC/C(=N/Oc3ccc(Cl)cc3)C(N)C2)c(F)cc2c(=O)c(C(=O)O)cn(C3CC3)c12 (stereo not drawn),0.008
4,CO/N=C1\CN(c2nc3c(cc2F)c(=O)c(C(=O)O)cn3C2CC2)CC1CN (stereo not drawn) [GEMIFLOXACIN],4
5,CCc1ccc(O/N=C2/CCN(c3c(F)cc4c(=O)c(C(=O)O)cn(C5CC5)c4c3OC)CC2N)cc1CC (stereo not drawn),0.008
6,COc1c(N2CC/C(=N/Oc3ccc(C)c(C)c3)C(N)C2)c(F)cc2c(=O)c(C(=O)O)cn(C3CC3)c12 (stereo not drawn),0.008
7,COc1ccc(O/N=C2/CCN(c3c(F)cc4c(=O)c(C(=O)O)cn(C5CC5)c4c3OC)CC2N)cc1 (stereo not drawn),0.008
8,COc1cc(OC)cc(O/N=C2/CCN(c3c(F)cc4c(=O)c(C(=O)O)cn(C5CC5)c4c3OC)CC2N)c1 (stereo not drawn),0.008
9,COc1ccccc1O/N=C1/CCN(c2c(F)cc3c(=O)c(C(=O)O)cn(C4CC4)c3c2OC)CC1N (stereo not drawn),0.008
10,COc1cccc(O/N=C2/CCN(c3c(F)cc4c(=O)c(C(=O)O)cn(C5CC5)c4c3OC)CC2N)c1 (stereo not drawn),0.008
11,COc1cccc(O/N=C2/CCN(c3c(F)cc4c(=O)c(C(=O)O)cn(C5CC5)c4c3OC)CC2N)c1OC (stereo not drawn),0.008
12,COc1ccc(OC)c(O/N=C2/CCN(c3c(F)cc4c(=O)c(C(=O)O)cn(C5CC5)c4c3OC)CC2N)c1 (stereo not drawn),0.008
13,COc1c(N2CC/C(=N/Oc3ccccc3)C(N)C2)c(F)cc2c(=O)c(C(=O)O)cn(C3CC3)c12 (stereo not drawn),0.008
14,CNC1CCCN(c2c(F)cc3c(=O)c(C(=O)O)cn(C4CC4)c3c2OC)C1 (stereo not drawn) [BALOFLOXACIN],4

# System: Staphylococcus aureus
# Test: Antimicrobial activity against methicillin-resistant Staphylococcus aureus incubated for 18 hrs by Agar dilution method
# Format: functional
row,SMILES,MIC [µg/mL]
1,Cn1nc2c(c1N)CN(c1nc3c(cc1F)c(=O)c(C(=O)O)cn3-c1ccc(F)cc1F)C2,0.125
2,Cn1nc2c(c1N)CN(c1c(F)cc3c(=O)c(C(=O)O)cn(CCF)c3c1F)C2,0.125
3,CC(=O)c1c(N2Cc3n[nH]c(N)c3C2)c(F)cc2c(=O)c(C(=O)O)cn(C3CC3)c12,0.125
4,CCn1cc(C(=O)O)c(=O)c2cc(F)c(N3Cc4n[nH]c(N)c4C3)c(F)c21,0.125
5,CO/N=C1\CN(c2nc3c(cc2F)c(=O)c(C(=O)O)cn3C2CC2)CC1CN (stereo not drawn) [GEMIFLOXACIN],0.06
6,Nc1[nH]nc2c1CN(c1c(F)cc3c(=O)c(C(=O)O)cn(CCF)c3c1F)C2,0.125
7,Nc1[nH]nc2c1CN(c1c(F)cc3c(=O)c(C(=O)O)cn(C4CC4)c3c1F)C2,0.125
8,COc1c(N2C[C@@H]3CCCN[C@@H]3C2)c(F)cc2c(=O)c(C(=O)O)cn(C3CC3)c12 [MOXIFLOXACIN],0.06
9,Cn1nc2c(c1N)CN(c1c(F)cc3c(=O)c(C(=O)O)cn(C4CC4)c3c1C(=O)C(F)F)C2,0.125
10,Nc1[nH]nc2c1CN(c1c(F)cc3c(=O)c(C(=O)O)cn(C4CC4)c3c1C(=O)C(F)F)C2,0.125
11,CC(=O)c1c(N2Cc3nn(C)c(N)c3C2)c(F)cc2c(=O)c(C(=O)O)cn(C3CC3)c12,0.125
12,Cn1nc2c(c1N)CN(c1nc3c(cc1F)c(=O)c(C(=O)O)cn3C1CC1)C2,0.125
13,Cn1nc2c(c1N)CN(c1c(F)cc3c(=O)c(C(=O)O)cn(C4CC4)c3c1F)C2,0.125
14,Nc1[nH]nc2c1CN(c1nc3c(cc1F)c(=O)c(C(=O)O)cn3-c1ccc(F)cc1F)C2,0.125
15,CCn1cc(C(=O)O)c(=O)c2cc(F)c(N3Cc4nn(C)c(N)c4C3)c(F)c21,0.125
16,COc1c(N2CCNC(C)C2)c(F)cc2c(=O)c(C(=O)O)cn(C3CC3)c12 (stereo not drawn) [GATIFLOXACIN],0.06
17,Nc1[nH]nc2c1CN(c1nc3c(cc1F)c(=O)c(C(=O)O)cn3C1CC1)C2,0.125

# System: Staphylococcus aureus
# Test: Antibacterial activity against methicillin-resistant Staphylococcus aureus
# Format: functional
row,SMILES,MIC [µg/mL]
1,COc1c(-n2cc3ccccc3c2)c(F)cc2c(=O)c(C(=O)Nc3nccs3)cn(C3CC3)c12,> 201
2,COc1c(N2CCCCC2)c(F)cc2c(=O)c(C(=O)Nc3nccs3)cn(C3CC3)c12,> 201
3,COc1c(N2CCCC2)c(F)cc2c(=O)c(C(=O)Nc3nccs3)cn(C3CC3)c12,> 201
4,COc1c(N2CCOCC2)c(F)cc2c(=O)c(C(=O)Nc3nccs3)cn(C3CC3)c12,> 201

# System: Staphylococcus aureus
# Test: Antimicrobial activity against methicillin-resistant Staphylococcus aureus assessed as inhibition of microbial growth
# Format: functional
row,SMILES,MIC [µg/mL]
1,O=C(O)c1cn(C2CC2)c2c(c1=O)C=C(F)C1N=NC(c3ccc(Br)cc3)=CN21 (stereo not drawn),0.25
2,Nc1cccc(C2=CN3c4c(c(=O)c(C(=O)O)cn4C4CC4)C=C(F)C3N=N2)c1 (stereo not drawn),0.25
3,COc1ccc(C2=CN3c4c(c(=O)c(C(=O)O)cn4C4CC4)C=C(F)C3N=N2)cc1OC (stereo not drawn),0.25
4,COc1ccc(C(=O)N2CCN(C(=O)N3CCN(c4ccc5c(=O)c(C(=O)O)cn(C6CC6)c5c4)CC3)CC2)c(OC)c1,< 0.016
5,O=C(O)c1cn(C2CC2)c2c(c1=O)C=C(F)C1N=NC(c3cccc([N+](=O)[O-])c3)=CN21 (stereo not drawn),0.25
6,O=C(O)c1cn(C2CC2)c2c(c1=O)C=C(F)C1N=NC(c3ccc(O)cc3)=CN21 (stereo not drawn),0.25
7,Nc1ccc(C2=CN3c4c(c(=O)c(C(=O)O)cn4C4CC4)C=C(F)C3N=N2)cc1 (stereo not drawn),0.25
8,COc1ccc(C2=CN3c4c(c(=O)c(C(=O)O)cn4C4CC4)C=C(F)C3N=N2)cc1 (stereo not drawn),0.25
9,COc1cccc(C(=O)N2CCN(C(=O)N3CCN(c4ccc5c(=O)c(C(=O)O)cn(C6CC6)c5c4)CC3)CC2)c1,< 0.016
10,Cc1ccccc1C1=CN2c3c(c(=O)c(C(=O)O)cn3C3CC3)C=C(F)C2N=N1 (stereo not drawn),0.25
11,COc1ccc(C(=O)N2CCN(C(=O)N3CCN(c4ccc5c(=O)c(C(=O)O)cn(C6CC6)c5c4)CC3)CC2)cc1,< 0.016
12,O=C(O)c1cn(C2CC2)c2c(c1=O)C=C(F)C1N=NC(c3cccc(Cl)c3)=CN21 (stereo not drawn),0.25
13,Cc1ccc(C2=CN3c4c(c(=O)c(C(=O)O)cn4C4CC4)C=C(F)C3N=N2)cc1 (stereo not drawn),0.25
14,COc1cc(OC)cc(C(=O)N2CCN(C(=O)N3CCN(c4ccc5c(=O)c(C(=O)O)cn(C6CC6)c5c4)CC3)CC2)c1,< 0.016
15,O=C(O)c1cn(C2CC2)c2c(c1=O)C=C(F)C1N=NC(c3ccc(Cl)cc3)=CN21 (stereo not drawn),0.25
16,O=C(O)c1c[nH]c2cc(N3CCN([C@@H]4O[C@H](CO)[C@H](O)[C@H](O)[C@H]4O)CC3)c(F)cc2c1=O,0.5
17,O=C(O)c1cn(C2CC2)c2c(c1=O)C=C(F)C1N=NC(c3ccc([N+](=O)[O-])cc3)=CN21 (stereo not drawn),0.25
18,COc1ccccc1C(=O)N1CCN(C(=O)N2CCN(c3ccc4c(=O)c(C(=O)O)cn(C5CC5)c4c3)CC2)CC1,< 0.016
19,COc1ccccc1C1=CN2c3c(c(=O)c(C(=O)O)cn3C3CC3)C=C(F)C2N=N1 (stereo not drawn),0.25
20,COc1ccc(C(=O)N2CCN(C(=O)N3CCN(c4ccc5c(=O)c(C(=O)O)cn(C6CC6)c5c4)CC3)CC2)cc1OC,< 0.016
21,O=C(O)c1c[nH]c2cc(N3CCN([C@@H]4O[C@H](CO)[C@@H](O)[C@H](O)[C@H]4O)CC3)c(F)cc2c1=O,0.5

# System: Staphylococcus aureus
# Test: Bactericidal activity against methicillin-resistant Staphylococcus aureus assessed as inhibition of microbial growth
# Format: functional
row,SMILES,MBC [µg/mL]
1,COc1ccc(C(=O)N2CCN(C(=O)N3CCN(c4ccc5c(=O)c(C(=O)O)cn(C6CC6)c5c4)CC3)CC2)c(OC)c1,≥ 128
2,COc1cccc(C(=O)N2CCN(C(=O)N3CCN(c4ccc5c(=O)c(C(=O)O)cn(C6CC6)c5c4)CC3)CC2)c1,≥ 128
3,COc1ccc(C(=O)N2CCN(C(=O)N3CCN(c4ccc5c(=O)c(C(=O)O)cn(C6CC6)c5c4)CC3)CC2)cc1,≥ 128
4,COc1cc(OC)cc(C(=O)N2CCN(C(=O)N3CCN(c4ccc5c(=O)c(C(=O)O)cn(C6CC6)c5c4)CC3)CC2)c1,≥ 128
5,COc1ccccc1C(=O)N1CCN(C(=O)N2CCN(c3ccc4c(=O)c(C(=O)O)cn(C5CC5)c4c3)CC2)CC1,≥ 128
6,COc1ccc(C(=O)N2CCN(C(=O)N3CCN(c4ccc5c(=O)c(C(=O)O)cn(C6CC6)c5c4)CC3)CC2)cc1OC,≥ 128

# System: Staphylococcus aureus
# Test: Antibacterial activity against methicillin-resistant Staphylococcus aureus assessed as inhibition of microbial growth
# Format: functional
row,SMILES,MIC [µg/mL]
1,CC(=O)c1c(N2CC(CN)C(C)(C)C2)ccc2c(=O)c(C(=O)O)cn(C3CC3)c12 (stereo not drawn),0.015
2,CC1(C)CN(c2ccc3c(=O)c(C(=O)O)cn(-c4ccc(F)cc4F)c3n2)CC1CN (stereo not drawn),0.015
3,CNCC1CN(c2cc(N)c3c(=O)c(C(=O)O)cn(C4CC4)c3c2C(C)=O)CC1(C)C (stereo not drawn),0.015
4,CC1(C)CN(c2ccc3c(=O)c(C(=O)O)cn(C4CC4)c3n2)CC1CN (stereo not drawn),0.015
5,CNCC1CN(c2ccc3c(=O)c(C(=O)O)cn(-c4ccc(F)cc4F)c3n2)CC1(C)C (stereo not drawn),0.015
6,CNCC1CN(c2ccc3c(=O)c(C(=O)O)cn(C4CC4)c3c2C(C)=O)CC1(C)C (stereo not drawn),0.015
7,CNCC1CN(c2ccc3c(=O)c(C(=O)O)cn(C4CC4)c3c2)CC1(C)C (stereo not drawn),0.015
8,CC1(C)CN(c2ccc3c(=O)c(C(=O)O)cn(C4CC4)c3c2)CC1CN (stereo not drawn),0.015
9,CC(=O)c1c(N2CC(CN)C(C)(C)C2)cc(N)c2c(=O)c(C(=O)O)cn(C3CC3)c12 (stereo not drawn),0.015
10,CNCC1CN(c2ccc3c(=O)c(C(=O)O)cn(C4CC4)c3n2)CC1(C)C (stereo not drawn),0.015
11,COc1c(N2CCNC(C)C2)c(F)cc2c(=O)c(C(=O)O)cn(C3CC3)c12 (stereo not drawn) [GATIFLOXACIN],0.06

# System: Staphylococcus aureus
# Test: Antimicrobial activity against methicillin-resistant Staphylococcus aureus isolates by agar dilution method
# Format: functional
row,SMILES,MIC [µg/mL]
1,O=C(O)c1cn(C2CC2)c2c(F)c(N3CC(N(Cc4ccccc4)Cc4ccccc4)C3)c(F)cc2c1=O,0.016
2,O=C(O)c1cn(C2CC2)c2c(F)c(N3CC(Nc4ccc(Cl)cc4)C3)c(F)cc2c1=O,0.016
3,COc1ccc(NC2CN(c3c(F)cc4c(=O)c(C(=O)O)cn(C5CC5)c4c3F)C2)cc1,0.16
4,O=C(O)c1cn(C2CC2)c2c(F)c(N3CC(Nc4ccccc4)C3)c(F)cc2c1=O,0.016
5,Cc1ccc(NC2CN(c3c(F)cc4c(=O)c(C(=O)O)cn(C5CC5)c4c3F)C2)cc1,0.016
